According to PubChem BioAssay (NCI):
Several values for one entry are separate records, joined by “and”; a condition that tells them apart may be missing. Equal entries are not always repeated.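 48-hour exposure; five concentrations; linearly interpolated endpoints. GI50 = concentration required for 50% inhibition of growth. At the TGI there is no net growth.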

What was measured:
Assay in all cases: DTP human tumour cell line panel, 48 h
[1] = test system: SNB-75 CNS
[2] = test system: SK-MEL-28 melanoma
[3] = test system: ACHN renal
[4] = test system: BT-549 breast
[5] = test system: OVCAR-3 ovarian
[6] = test system: LOX IMVI melanoma
[7] = test system: OVCAR-8 ovarian
[8] = test system: MALME-3M melanoma
[9] = test system: SK-MEL-5 melanoma
[10] = test system: KM12 colon

Row | Structure (SMILES) | TGI [1] | TGI [2] | TGI [3] | TGI [4] | TGI [5] | TGI [6] | TGI [7] | TGI [8] | TGI [9] | TGI [10] | GI50 [1] [µM] | GI50 [2] [µM] | GI50 [3] [µM] | GI50 [4] [µM] | GI50 [5] [µM] | GI50 [6] [µM] | GI50 [7] [µM] | GI50 [8] [µM] | GI50 [9] [µM] | GI50 [10] [µM]
1 | COC1=C(C)C(=O)c2c(c(COC(N)=O)c3n2CC(OC(C)=O)C3OC(C)=O)C1=O (stereo unspecified) | 1.09 µM | 0.816 µM | 1.03 µM | 1.21 µM | 0.416 µM | 1.06 µM | 0.373 µM | 0.156 µM | 0.392 µM | 0.939 µM |  |  |  |  |  |  |  |  |  | 
2 | CC1(C)[C@H]2CC[C@@]13C(=O)N1C(=O)O[C@@H]([C@H]1Cl)C(Cl)(COCc1ccccc1)C(=O)OCCO[C@H]3C2 (stereo partly specified) | > 100 µM | > 100 µM | > 100 µM | > 100 µM | > 100 µM | > 100 µM | > 100 µM | > 100 µM | > 100 µM | > 100 µM |  |  |  |  |  |  |  |  |  | 
3 | O=c1cc(N2CCCC2)[nH]c(=O)n1-c1ccccc1 | > 100 µM | > 100 µM | > 100 µM | > 100 µM |  | > 100 µM | > 100 µM | > 100 µM | > 100 µM | > 100 µM |  |  |  |  |  |  |  |  |  | 
4 | Cc1c2c(OCC3CCCCO3)nn(C)c(=O)c2c(C)n1-c1ccccc1 (stereo unspecified) | 32 µM |  | 31.1 µM | 38.2 µM | 33.3 µM | 33.7 µM | 42.2 µM | 33.1 µM | 29.1 µM | 40.4 µM |  |  |  |  |  |  |  |  |  | 
5 | NS(=O)(=O)c1cccc(NC(=S)NC(=O)Nc2ccc(Cl)c(Cl)c2)c1 | 54.9 µM | 42.9 µM | 48.7 µM | 32.1 µM |  | 33.4 µM | 32.5 µM | 29.4 µM | 30.8 µM | 31.4 µM |  |  |  |  |  |  |  |  |  | 
6 | COC(=O)/C(C#N)=C(/NCCN)Nc1ccccc1 | > 100 µM | > 100 µM | > 100 µM | > 100 µM | > 100 µM | > 100 µM | > 100 µM | > 100 µM | > 100 µM |  |  |  |  |  |  |  |  |  |  | 
7 | CC12CCCC3(CC(=O)C(C)(C)C3C(=O)C1)C2 (stereo unspecified) | > 100 µM | > 100 µM | > 100 µM | > 100 µM | > 100 µM | > 100 µM | > 100 µM | > 100 µM | > 100 µM | > 100 µM |  |  |  |  |  |  |  |  |  | 
8 | O=C1NCN(c2ccccc2)C12CCN(CCCN1CCN(CCOC(c3ccc(F)cc3)c3ccc(F)cc3)CC1)CC2 |  | 6.3 µM | 3.85 µM | 5.44 µM | 3.86 µM | 3.39 µM | 4.82 µM | 2.68 µM | 3.09 µM | 6.09 µM |  |  |  |  |  |  |  |  |  | 
9 | COC(=O)[C@H](Cc1ccccc1)NC(=O)CCCCCCC(=O)NO |  | > 100 µM | > 100 µM | > 100 µM | 34.9 µM | 32.4 µM | > 100 µM | 38.6 µM | 28.6 µM | > 100 µM |  |  |  |  |  |  |  |  |  | 
10 | C=C1c2nc3ccccc3n2C=C(c2ccc(Cl)cc2)N1c1ccc(OC)cc1 | 7.13 µM | 22.2 µM | 13.5 µM | 6.88 µM | 25.7 µM | > 100 µM | 15.8 µM | 13.3 µM | 46.2 µM | 18.7 µM |  |  |  |  |  |  |  |  |  | 
11 | C=C(CN(C)C)C(=O)c1ccccc1[N+](=O)[O-] | 66.3 µM and 44.4 µM | 34.1 µM and 51.6 µM | 29.5 µM and 14.8 µM | 30.6 µM and 60.4 µM | 37 µM and 40.7 µM | 15 µM and 15.5 µM | 40.9 µM and 32 µM | 20.2 µM and 21.1 µM | 33.4 µM and 39.6 µM | 46.1 µM and 37.5 µM | 15.8 | 18.8 | 3.79 | 24.3 | 14.7 | 3.98 | 6.55 | 4.74 | 16.9 | 15.6
12 | S=c1cc(-c2ccc3c(c2)OCO3)s[nH]1 | > 100 µM | > 100 µM | > 100 µM | > 100 µM | > 100 µM | > 100 µM | > 100 µM | > 100 µM | > 100 µM | > 100 µM |  |  |  |  |  |  |  |  |  | 
13 | CSc1n[nH]c(N)c1C(=O)Nc1ccccc1 | > 100 µM | > 100 µM |  | > 100 µM | > 100 µM | > 100 µM | > 100 µM | > 100 µM | > 100 µM | > 100 µM |  |  |  |  |  |  |  |  |  | 
14 | C[n+]1c(-c2ccc(/C=C/C=N\NC(=O)c3ccc(C(=O)N/N=C\C=C\c4ccc(-c5cn6ccccc6[n+]5C)cc4)cc3)cc2)cn2ccccc21 | > 100 µM | > 100 µM | > 100 µM | > 100 µM | > 100 µM | > 100 µM | > 100 µM | > 100 µM | > 100 µM | > 57.5 µM |  |  |  |  |  |  |  |  |  | 
15 | CCOC(=O)c1nc2cc(C(F)(F)F)ccc2nc1Nc1ccc(C(=O)NC(C(=O)OCC)C(=O)OCC)cc1 |  | 69.2 µM | 63.1 µM | 51.6 µM | > 100 µM | > 100 µM |  | 40.3 µM | 54.2 µM | > 100 µM |  |  |  |  |  |  |  |  |  | 
16 | COc1cc(/C=C/C=C2\CC/C(=C\C=C\c3ccc(O)c(OC)c3)C2=O)ccc1O | > 100 µM | > 100 µM | > 100 µM | > 100 µM | > 100 µM | > 100 µM | > 100 µM | > 100 µM | > 100 µM | > 100 µM |  |  |  |  |  |  |  |  |  | 
17 | CCOC(=O)C#Cc1ccccc1 |  | 44.3 µM | > 100 µM | 79.5 µM | 45.7 µM | 14.9 µM | > 100 µM | 33.2 µM | 17.4 µM | 31.2 µM |  |  |  |  |  |  |  |  |  | 
18 | CC(C(=O)O)C(C)(O)C(=O)O (stereo unspecified) | > 100 µM | > 100 µM |  | > 100 µM | > 100 µM | > 100 µM | > 100 µM | > 100 µM | > 100 µM | > 100 µM |  |  |  |  |  |  |  |  |  | 
19 | CCOC(=O)C1CCC(=O)N1C(=O)c1ccccc1 (stereo unspecified) |  | > 100 µM | > 100 µM | > 100 µM | > 100 µM | > 100 µM | > 100 µM | > 100 µM | > 100 µM | > 100 µM |  |  |  |  |  |  |  |  |  | 
20 | COc1cc(NC(C)=O)ccc1C(=O)NN1C(=O)/C(=C/c2ccco2)N=C1c1ccccc1 | > 50 µM | > 50 µM | > 50 µM | > 50 µM | > 50 µM | > 50 µM | > 50 µM | > 50 µM | > 50 µM |  |  |  |  |  |  |  |  |  |  | 
21 | COc1cc2ccc1OCc1cccc(n1)COc1ccc(cc1OC)C=Nc1ccc(cc1)N=C2 | > 100 µM |  | > 100 µM | > 100 µM | > 100 µM | > 100 µM | > 100 µM | > 100 µM | > 100 µM | > 100 µM |  |  |  |  |  |  |  |  |  | 
